How the values were obtained:
Cathepsin B = Cathepsin B (Homo sapiens, UniProt P07858); experiment: Inhibitory activity against Cathepsin B
Chymotrypsinogen B = Chymotrypsinogen B (Homo sapiens, UniProt P17538); experiment: Inhibitory activity against alpha-chymotrypsin
Neutrophil elastase = biological target: T1, Neutrophil elastase (Homo sapiens, UniProt P08246); experiment: Inhibitory activity against human leukocyte elastase protease(HLE)
T1 sequence (P08246 whole entry): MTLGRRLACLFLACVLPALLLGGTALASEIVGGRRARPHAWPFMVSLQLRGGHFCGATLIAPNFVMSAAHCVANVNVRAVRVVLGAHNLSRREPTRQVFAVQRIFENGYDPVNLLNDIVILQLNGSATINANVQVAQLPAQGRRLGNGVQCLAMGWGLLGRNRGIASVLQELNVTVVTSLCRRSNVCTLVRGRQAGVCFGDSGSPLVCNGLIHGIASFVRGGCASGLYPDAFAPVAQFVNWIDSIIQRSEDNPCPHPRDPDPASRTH

[1] = biological target: T2, Capsid scaffolding protein (Human cytomegalovirus (strain AD169) (HHV-5) (Human herpesvirus 5), UniProt P16753); experiment: Inhibitory activity against human cytomegalovirus (HCMV) protease; set-up: species or system Human herpesvirus 5 strain AD169
T2 sequence (P16753 whole entry): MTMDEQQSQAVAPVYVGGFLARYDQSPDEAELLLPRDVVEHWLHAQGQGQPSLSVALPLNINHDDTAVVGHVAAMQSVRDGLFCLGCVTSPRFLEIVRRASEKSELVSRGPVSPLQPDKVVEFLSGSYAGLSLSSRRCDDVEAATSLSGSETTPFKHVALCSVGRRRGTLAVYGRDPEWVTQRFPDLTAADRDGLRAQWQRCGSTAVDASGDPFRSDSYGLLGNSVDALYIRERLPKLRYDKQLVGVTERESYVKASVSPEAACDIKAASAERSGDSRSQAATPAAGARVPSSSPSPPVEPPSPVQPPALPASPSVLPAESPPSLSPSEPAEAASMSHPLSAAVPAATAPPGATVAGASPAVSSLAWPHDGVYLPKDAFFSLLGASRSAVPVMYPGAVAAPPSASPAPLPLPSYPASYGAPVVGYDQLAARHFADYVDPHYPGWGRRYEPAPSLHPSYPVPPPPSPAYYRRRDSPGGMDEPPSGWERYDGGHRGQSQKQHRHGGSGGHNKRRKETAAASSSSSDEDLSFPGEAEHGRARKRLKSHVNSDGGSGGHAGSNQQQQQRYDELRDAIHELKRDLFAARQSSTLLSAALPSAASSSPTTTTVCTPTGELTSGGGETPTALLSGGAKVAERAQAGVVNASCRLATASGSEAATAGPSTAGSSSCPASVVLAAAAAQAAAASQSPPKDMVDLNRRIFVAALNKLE

Sequence of Chymotrypsinogen B (P17538 34-164 limits assumed, other chains not shown): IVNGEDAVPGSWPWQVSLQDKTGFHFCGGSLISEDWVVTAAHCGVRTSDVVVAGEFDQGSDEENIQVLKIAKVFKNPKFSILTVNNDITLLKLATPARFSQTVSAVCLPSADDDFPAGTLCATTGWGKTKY
Sequence of Chymotrypsinogen B (P17538 167-263 limits assumed, other chains not shown): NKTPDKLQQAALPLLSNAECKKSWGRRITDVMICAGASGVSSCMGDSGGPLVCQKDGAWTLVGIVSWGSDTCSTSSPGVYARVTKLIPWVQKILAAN

Compound	IC50 (Cathepsin B) [µM]	IC50 (Chymotrypsinogen B) [µM]	IC50 (Neutrophil elastase) [µM]	IC50 [1] [µM]
O=C1CC(SCc2ccccn2)N1C(=O)N[C@H](CO)c1ccccc1 (stereo partly drawn)	> 75	> 75	> 75	
C[C@@H](NC(=O)N1C(=O)CC1SCc1ccccn1)c1ccccc1 (stereo partly drawn)	> 75	> 75	> 75	
CC(C)C[C@@H](COC1CC(=O)N1C(=O)N[C@H](C)c1ccccc1)NC(=O)[C@@H](NC(=O)OC(C)(C)C)C(C)(C)C (stereo partly drawn)	> 75	> 75	> 75	1.4
CC(C)C[C@@H](CSC1CC(=O)N1C(=O)NCc1ccccc1)NC(=O)[C@@H](NC(=O)OC(C)(C)C)C(C)(C)C (stereo partly drawn)	> 75	0.8	> 75	
C[C@@H](NC(=O)N1C(=O)CC1SCC(=O)c1ccccc1)c1ccccc1 (stereo partly drawn)	> 75	> 75	> 75	
C[C@@H](NC(=O)N1C(=O)CC1SCc1ccccc1)c1ccccc1 (stereo partly drawn)	> 75	> 75	> 75	2.4
C[C@@H](NC(=O)N1C(=O)CC1SCc1ccc(CC(=O)OC(C)(C)C)cc1)c1ccccc1 (stereo partly drawn)	> 75	> 75	> 75	75
CC(C)C[C@@H](COC1CC(=O)N1C(=O)N[C@@H](C)c1ccccc1)NC(=O)[C@@H](NC(=O)OC(C)(C)C)C(C)(C)C (stereo partly drawn)	> 75	> 75	> 75	0.3
CC[C@@H](NC(=O)N1C(=O)CC1SCc1ccccn1)c1ccccc1 (stereo partly drawn)	> 75	> 75	> 75	
C[C@@H](NC(=O)N1C(=O)CC1SCCc1ccccc1)c1ccccc1 (stereo partly drawn)	> 75	> 75	> 75	
C[C@@H](NC(=O)N1C(=O)CC1Sc1ccccc1)c1ccccc1 (stereo partly drawn)	> 75	> 75	> 75	
CC[C@H](NC(=O)N1C(=O)CC1SC[C@H](CC(C)C)NC(=O)[C@@H](NC(=O)CC(C)(C)C)C(C)(C)C)c1ccccc1 (stereo partly drawn)	> 75	> 75	> 75	0.07
CC[C@@H](NC(=O)N1C(=O)[C@@H](C)[C@@H]1SCc1ccccn1)c1ccccc1	> 75	1.7	< 0.15	
C[C@@H](NC(=O)N1C(=O)CC1SCc1cccnc1)c1ccccc1 (stereo partly drawn)	> 75	> 75	> 75	
CC(C)C[C@@H](COC1CC(=O)N1C(=O)NCc1ccccc1)NC(=O)[C@@H](NC(=O)OC(C)(C)C)C(C)(C)C (stereo partly drawn)	> 75	8.3	> 75	
C[C@@H](NC(=O)N1C(=O)CC1SCc1ccncc1)c1ccccc1 (stereo partly drawn)	> 75	> 75	> 75	
CC(C)C[C@@H](COC1CC(=O)N1)NC(=O)[C@@H](NC(=O)OC(C)(C)C)C(C)(C)C (stereo partly drawn)				> 300
O=C1CC(SCc2ccccn2)N1C(=O)NCCOCc1ccccc1 (stereo not drawn)	> 75	> 75	> 75	6.4
